Results published in patent US20250380697A1, “ISOXAZOLINE DERIVATIVE COMPOUND AND INSECTICIDAL COMPOSITION COMPRISING SAME” (KYUNG NONG CORPORATION, priority 2022, published 2025).

Key:
Format in all cases: in vivo
Spodoptera litura = assay: Pesticidal activity against Spodoptera litura, leaf-dipping method; conditions: 48 h, read-out: mortality rate against Spodoptera litura
Description: Cabbage (Daiya) leaves were cut into pieces with a diameter of 5.8 cm, dipped in each of the pesticide compositions prepared in Examples (a 5% acetone solution in which each of the compounds of Synthesis Examples (concentration: 100 ppm) was diluted) for 30 seconds, and sufficiently shade-dried. Then, the shade-dried cabbage leaves were placed in a petri dish (8.8 cm in diameter) covered with a filter paper and repeatedly inoculated 3 times with the second instar larvae of Spodoptera litura, 10 larvae per inoculation. In this case, Spodoptera litura larvae used were those which were purchased from the Bio Utilization Institute (Andong, Korea). Then, the Spodoptera litura larvae were stored under the conditions of 16 hours of light and 8 hours of dark, 25±1° C., and relative humidity of 50-60%, and the number of live Spodoptera litura larvae was counted 48 hours after the inoculation. Thereafter, the larvae mortality rate was calculated in the same manner as in Test Example 1 above.

[1] = test system: Frankliniella occidentalis; assay: Pesticidal activity against Frankliniella occidentalis, spray method; conditions: 48 h, read-out: mortality rate against Frankliniella occidentalis
Source text: A water-soaked filter paper (9.0 cm in diameter) was placed in an insect breeding dish (Lab Guide®) with a diameter of 9.0 cm and a height of 4.0 cm, and then parafilm (width 4.0 cm×height 4.0 cm) was placed thereon. Before treating with a pesticide composition, 10 adult Frankliniella occidentalis were inoculated per petri dish using a No. 4 brush. In this case, Frankliniella occidentalis adults used were those purchased from the Bio Utilization Institute (Andong, Korea). Then, each of the pesticide compositions prepared in Examples (a diluted solution in which each of the compounds of Synthesis Examples (concentration: 100 ppm) was diluted; the solvent=distilled water+acetone 50,000 mg/L+Triton X-100 100 mg/L) was loaded into a 100 mL small sprayer, and sprayed 10-12 times at a distance of 30 cm and a height of 50 cm, and one cotyledons of soybean, which is a host plant, were added one at a time. Then, the Frankliniella occidentalis adults were stored under the conditions of 16 hours of light and 8 hours of darkness, 25±1° C., and relative humidity of 50-60%, and the number of live Frankliniella occidentalis adults was counted 48 hours after the inoculation. Thereafter, the larvae mortality rate was calculated in the same manner as in Test Example 1 above.

Plutella xylostella = assay: Pesticidal activity against Plutella xylostella, leaf-dipping method; conditions: 48 h, read-out: larvae mortality rate against Plutella xylostella
Description: Cabbage (Daiya) leaves were cut into pieces with a diameter of 5.8 cm, dipped in each of the pesticide compositions prepared in Examples (a 5% acetone solution in which each of the compounds of Synthesis Examples (concentration: 100 ppm) was diluted) for 30 seconds, and sufficiently shade-dried. Then, the shade-dried cabbage leaves were placed in a petri dish (8.8 cm in diameter) covered with a filter paper and repeatedly inoculated 3 times with third instar larvae of Plutella xylostella, 10 larvae per inoculation. In particular, Plutella xylostella larvae used were those which were collected in a place near Gyeongju (Korea) in 2000 and bred in a breeding room for multiple generations. Then, the Plutella xylostella larvae were stored under the conditions of 16 hours of light and 8 hours of dark, 25±1° C., and relative humidity of 50-60%, and the number of live Plutella xylostella larvae was counted 48 hours after the inoculation. Thereafter, the larvae mortality rate was calculated by correcting the density after treatment based on the density before treatment, as shown in Equation 1 and Equation 2 below, and converting the same into the corrected mortality rate for untreated (Reference: A method of computing the effectiveness of an insecticide. J. Econ. Entomol. 18:265˜267. Abbott, 1925).

Measured: mortality at 100 ppm

Cc1cc(C2=NOC(c3cc(Cl)cc(Cl)c3)(C(F)(F)F)C2)ccc1C(=O)NC(=O)c1ccco1 (stereo not drawn) [Synthesis Example 58]
≥ 80%: all assays above

Cc1cc(C(=O)NC(=O)c2ccc(C3=NOC(c4cc(Cl)cc(C(F)(F)F)c4)(C(F)(F)F)C3)cc2C)c(C)o1 (stereo not drawn) [Synthesis Example 57]
≥ 80%: all assays above

O=C(NC(=O)C1CC1)c1ccc(C2=NOC(c3cc(Cl)cc(C(F)(F)F)c3)(C(F)(F)F)C2)cc1Cl (stereo not drawn) [Synthesis Example 9]
≥ 80%: all assays above

Cc1cc(C2=NOC(c3cc(Cl)cc(C(F)(F)F)c3)(C(F)(F)F)C2)ccc1C(=O)N(C(=O)C1CC1)C1CC1 (stereo not drawn) [Synthesis Example 23]
≥ 80%: all assays above

Cc1cc(C2=NOC(c3cc(Cl)cc(Cl)c3)(C(F)(F)F)C2)ccc1C(=O)NC(=O)C1CC1(F)F (stereo not drawn) [Synthesis Example 50]
≥ 80%: all assays above

Cc1cc(C2=NOC(c3cc(Cl)cc(Cl)c3)(C(F)(F)F)C2)ccc1C(=O)NC(=O)c1nccs1 (stereo not drawn) [Synthesis Example 79]
≥ 80%: all assays above

C/C=C/C(=O)NC(=O)c1ccc(C2=NOC(c3cc(Cl)cc(C(F)(F)F)c3)(C(F)(F)F)C2)cc1C (stereo not drawn) [Synthesis Example 71]
≥ 80%: all assays above

Cc1cc(C2=NOC(c3cc(Cl)cc(C(F)(F)F)c3)(C(F)(F)F)C2)ccc1C(=O)NC(=O)C1CCC1 (stereo not drawn) [Synthesis Example 33]
≥ 80%: all assays above

Cc1cc(C2=NOC(c3cc(Cl)cc(C(F)(F)F)c3)(C(F)(F)F)C2)ccc1C(=O)NC(=O)C1CCCCC1 (stereo not drawn) [Synthesis Example 40]
≥ 80%: all assays above

Cc1cc(C2=NOC(c3cc(Cl)cc(C(F)(F)F)c3)(C(F)(F)F)C2)ccc1C(=O)NC(=O)C1CCOCC1 (stereo not drawn) [Synthesis Example 65]
≥ 80%: all assays above

Cc1cc(C2=NOC(c3cc(Cl)cc(Cl)c3)(C(F)(F)F)C2)ccc1C(=O)NC(=O)c1cn(C)nc1C(F)(F)F (stereo not drawn) [Synthesis Example 47]
≥ 80%: all assays above

O=C(NC(=O)C1CC1)c1ccc(C2=NOC(c3cc(Cl)cc(C(F)(F)F)c3)(C(F)(F)F)C2)cc1Br (stereo not drawn) [Synthesis Example 8]
≥ 80%: all assays above

Cc1cc(C2=NOC(c3cc(Cl)cc(C(F)(F)F)c3)(C(F)(F)F)C2)ccc1C(=O)NC(=O)c1nccs1 (stereo not drawn) [Synthesis Example 78]
≥ 80%: all assays above

Cc1cc(C2=NOC(c3cc(Cl)cc(Cl)c3)(C(F)(F)F)C2)ccc1C(=O)NC(=O)C1CCCCC1 (stereo not drawn) [Synthesis Example 39]
≥ 80%: all assays above

O=C(NC(=O)C1CC1)c1ccc(C2=NOC(c3cc(Cl)cc(C(F)(F)F)c3)(C(F)(F)F)C2)cn1 (stereo not drawn) [Synthesis Example 10]
≥ 80%: all assays above

Cc1cc(C2=NOC(c3cc(Cl)cc(C(F)(F)F)c3)(C(F)(F)F)C2)ccc1C(=O)NC(=O)c1ccno1 (stereo not drawn) [Synthesis Example 83]
≥ 80%: all assays above

Cc1cc(C(=O)NC(=O)c2ccc(C3=NOC(c4cc(Cl)cc(Cl)c4)(C(F)(F)F)C3)cc2C)c(C)o1 (stereo not drawn) [Synthesis Example 56]
≥ 80%: all assays above
